Columns and labels:
Herpesviren = assay: General statement on antiviral activity (no specific test named); conditions: qualitative statement in the description
in vitro [1] = conditions: bovine, mdbk cells
in vitro [2] = conditions: human, hela cells
in vitro [3] = conditions: monkey, vero cells
in vitro [4] = conditions: monkey, vero cells; remark: listed apart in the source

SMILES | antivirale Aktivität gegen Herpesviren (Herpesviren) | MNTC (in vitro [1]) [µg/mL] | MNTC (in vitro [2]) [µg/mL] | MNTC (in vitro [3]) [µg/mL] | MNTC (in vitro [4]) [µg/mL]
CC(C)OCC(COC(C)C)OCn1cnc2nc(N)ncc21 [Beispiel 6.7., 2-Amino-7-[1,3-bis(isopropoxy)-2-propoxymethyl]purin] | besonders hohen antiviralen Aktivität | > 400 | > 400 | > 400 | > 400
CC(C)OCC(CO)OCn1cnc2nc(N)ncc21 (centres unmarked) [Beispiel 6.10., 2-Amino-7-(1-hydroxy-3-isopropoxy-2-propoxymethyl)-purin] | besonders hohen antiviralen Aktivität | > 400 | > 400 | > 400 | > 400
Nc1ncc2c(ncn2COC(CO)CO)n1 [Beispiel 6.12., 2-Amino-7-(1,3-dihydroxy-2-propoxymethyl)-purin] | besonders hohen antiviralen Aktivität | > 400 | 44.4 | 133 | 133
Nc1nc2ncn(COC(CO)CO)c2c(=O)[nH]1 [reference compound] |  | > 400 | > 400 | > 400 | > 400
Nc1nc(O)c2ncn(COC(CO)CO)c2n1 [reference compound] |  | > 133 | > 400 | > 400 | > 400
